Assay results: US20230365576A1, “BRM Targeting Compounds And Associated Methods Of Use” (Prelude Therapeutics Incorporated, priority 2022, published 2023)

How the values were obtained:
SMARCA2 = target: T1, SMARCA2 (Homo sapiens, UniProt P51531); test: SMARCA2 HiBiT degradation assay in HeLa cells; assay type: cell-based; details: 18 hours; for DC50: read-out: SMARCA2 IC50; for Dmax: HeLa
T1 construct: SMARCA2-HiBiT knock-in Hela monoclonal cell (CS302366); host or cells: HeLa (CRISPR HiBiT knock-in monoclonal line, heterozygous)
Procedure: (§1) Example A. SMARCA2 HiBiT and SMARCA4 HiBiT Degradation Assay
(§2) Preparation of SMARCA2/4-HiBiT Knock-In Cells
(§3) HiBiT peptide knock-in of SMARCA2 in LgBiT expressing HEK293T cells was performed by CRISPR-mediated tagging system as described Promega. The homozygous HiBiT knock-in on c-terminus SMARCA2 was confirmed by sanger sequence. SMARCA2-HiBiT knock-in Hela monoclonal cell (CS302366) and SMARCA4-HiBiT knock-in Hela monoclonal cell (CS3023226) were purchased from Promega. The heterozygous HiBiT-knock-in was confirmed by sanger sequence in both SMARCA2-HiBiT and SMARCA4-HiBiT monoclonal cells.
(§4) SMARCA2 HiBiT and SMARCA4 HiBiT Degradation Assay in HeLa Cells
(§5) Compounds were dissolved in DMSO to make 10 mM stock and 3-fold series dilutions were further conducted keeping the highest concentration 10 μM. NCIH1693 and NCIH520 cells were maintained in PRMI 1640 medium (Corning Cellgro, Catalog #:10-040-CV) supplemented with 10% v/v FBS (GE Healthcare, Catalog #: SH30910.03) by splitting 1:3 twice a week.
(§6) Dispense 10 ul aliquot of prepared Hela-SMARCA2-HiBiT or Hela-SMARCA4-HiBiT cells (1:1 ratio of cells:Trypan Blue (#1450013, Bio-Rad)) onto cell counting slide (#145-0011, Bio-Rad) and obtain cell density and cell viability using cell counter (TC20, Bio-Rad). Remove appropriate volume of resuspended cells from culture flask to accommodate 2500 cells/well @ 20 μL/well. Transfer Hela-HiBiT cells to 50 mL conical (#430290, Corning). Spin down at 1000 rpm for 5 min using tabletop centrifuge (SPINCHRON 15, Beckman). Discard supernatant and resuspend cell pellet in modified EMEM (#30-2003, ATCC) cell culture media containing 10% FBS (F2422-500ML, Sigma), and 1X Penicillin/Streptomycin (200 g/L) (30-002-CI, Corning) to a cell density of 125,000 cells/mL. Dispense 20 μL of resuspended Hela-HiBit cells per well in 384-well TC treated plate (#12-565-343, Thermo Scientific) using standard cassette (#50950372, Thermo Scientific) on Multidrop Combi (#5840310, Thermo Scientific) inside laminar flow cabinet. Dispense test compounds onto plates using digital liquid dispenser (D300E, Tecan). Incubate plates in humidified tissue culture incubator @37° C. for 18 hours. Add 20 μL of prepared Nano-Glo® HiBiT Lytic detection buffer (N3050, Promega) to each well of 384-well plate using small tube cassette (#24073295, Thermo Scientific) on Multidrop Combi, incubate @ RT for 30-60 min. Read plates on microplate reader (Envision 2105, PerkinElmer) using 384 well Ultra-Sensitive luminescence mode. Raw data files and compound information reports are swept into centralized data lake and deconvoluted using automated scripts designed by TetraScience, Inc. Data analysis, curve-fitting and reporting done in Dotmatics Informatics Suite using Screening Ultra module.

SMARCA4 = target: T2, SMARCA4 (Homo sapiens, UniProt P51532); test: SMARCA4 HiBiT degradation assay in HeLa cells; assay type: cell-based; details: 18 hours; for Dmax: HeLa
T2 construct: SMARCA4-HiBiT knock-in Hela monoclonal cell (CS3023226) were purchased from Promega; host or cells: HeLa (CRISPR HiBiT knock-in monoclonal line, heterozygous)
Procedure: as §1, §2, §3, §4, §5, §6

T2 sequence (P51532 whole entry): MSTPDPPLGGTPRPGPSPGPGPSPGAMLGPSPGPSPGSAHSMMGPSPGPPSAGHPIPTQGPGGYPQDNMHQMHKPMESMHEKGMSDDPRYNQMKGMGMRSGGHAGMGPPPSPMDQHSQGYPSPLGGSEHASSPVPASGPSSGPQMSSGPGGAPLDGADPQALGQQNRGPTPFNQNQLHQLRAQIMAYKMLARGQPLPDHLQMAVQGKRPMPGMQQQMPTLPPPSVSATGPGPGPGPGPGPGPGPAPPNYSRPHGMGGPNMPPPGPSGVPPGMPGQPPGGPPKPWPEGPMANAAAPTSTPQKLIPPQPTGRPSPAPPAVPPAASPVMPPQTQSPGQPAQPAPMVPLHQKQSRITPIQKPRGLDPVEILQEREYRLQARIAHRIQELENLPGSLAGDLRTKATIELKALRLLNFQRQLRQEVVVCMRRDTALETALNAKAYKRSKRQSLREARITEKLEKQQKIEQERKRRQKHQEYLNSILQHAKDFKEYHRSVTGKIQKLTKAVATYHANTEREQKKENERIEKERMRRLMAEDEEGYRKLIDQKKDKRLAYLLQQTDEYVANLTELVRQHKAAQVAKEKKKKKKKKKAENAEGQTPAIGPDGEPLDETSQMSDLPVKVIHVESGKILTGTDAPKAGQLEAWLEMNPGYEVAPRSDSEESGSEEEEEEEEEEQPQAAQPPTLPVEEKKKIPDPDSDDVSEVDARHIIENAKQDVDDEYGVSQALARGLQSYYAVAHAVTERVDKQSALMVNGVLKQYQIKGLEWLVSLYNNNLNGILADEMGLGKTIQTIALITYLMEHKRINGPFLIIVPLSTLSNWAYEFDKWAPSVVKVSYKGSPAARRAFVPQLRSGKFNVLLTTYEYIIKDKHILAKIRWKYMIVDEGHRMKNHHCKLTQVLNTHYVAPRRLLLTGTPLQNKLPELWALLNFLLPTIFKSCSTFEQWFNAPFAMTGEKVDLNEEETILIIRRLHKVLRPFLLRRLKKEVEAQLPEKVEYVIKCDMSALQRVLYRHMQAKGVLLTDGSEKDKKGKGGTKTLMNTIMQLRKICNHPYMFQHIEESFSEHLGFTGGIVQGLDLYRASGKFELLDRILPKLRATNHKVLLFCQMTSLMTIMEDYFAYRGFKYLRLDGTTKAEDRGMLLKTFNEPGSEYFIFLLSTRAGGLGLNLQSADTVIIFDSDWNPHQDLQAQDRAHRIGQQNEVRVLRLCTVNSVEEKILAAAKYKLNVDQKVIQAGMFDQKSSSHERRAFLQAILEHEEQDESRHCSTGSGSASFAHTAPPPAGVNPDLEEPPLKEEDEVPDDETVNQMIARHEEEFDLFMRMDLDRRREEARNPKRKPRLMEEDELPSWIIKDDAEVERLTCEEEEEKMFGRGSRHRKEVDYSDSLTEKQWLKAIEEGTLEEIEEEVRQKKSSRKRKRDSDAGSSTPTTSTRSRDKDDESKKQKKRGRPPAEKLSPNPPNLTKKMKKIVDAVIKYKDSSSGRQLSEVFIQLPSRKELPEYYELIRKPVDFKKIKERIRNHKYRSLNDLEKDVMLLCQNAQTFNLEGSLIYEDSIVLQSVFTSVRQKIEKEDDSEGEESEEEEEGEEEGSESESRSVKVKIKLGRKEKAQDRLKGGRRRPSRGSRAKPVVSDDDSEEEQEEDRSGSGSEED
T1 sequence (P51531 whole entry): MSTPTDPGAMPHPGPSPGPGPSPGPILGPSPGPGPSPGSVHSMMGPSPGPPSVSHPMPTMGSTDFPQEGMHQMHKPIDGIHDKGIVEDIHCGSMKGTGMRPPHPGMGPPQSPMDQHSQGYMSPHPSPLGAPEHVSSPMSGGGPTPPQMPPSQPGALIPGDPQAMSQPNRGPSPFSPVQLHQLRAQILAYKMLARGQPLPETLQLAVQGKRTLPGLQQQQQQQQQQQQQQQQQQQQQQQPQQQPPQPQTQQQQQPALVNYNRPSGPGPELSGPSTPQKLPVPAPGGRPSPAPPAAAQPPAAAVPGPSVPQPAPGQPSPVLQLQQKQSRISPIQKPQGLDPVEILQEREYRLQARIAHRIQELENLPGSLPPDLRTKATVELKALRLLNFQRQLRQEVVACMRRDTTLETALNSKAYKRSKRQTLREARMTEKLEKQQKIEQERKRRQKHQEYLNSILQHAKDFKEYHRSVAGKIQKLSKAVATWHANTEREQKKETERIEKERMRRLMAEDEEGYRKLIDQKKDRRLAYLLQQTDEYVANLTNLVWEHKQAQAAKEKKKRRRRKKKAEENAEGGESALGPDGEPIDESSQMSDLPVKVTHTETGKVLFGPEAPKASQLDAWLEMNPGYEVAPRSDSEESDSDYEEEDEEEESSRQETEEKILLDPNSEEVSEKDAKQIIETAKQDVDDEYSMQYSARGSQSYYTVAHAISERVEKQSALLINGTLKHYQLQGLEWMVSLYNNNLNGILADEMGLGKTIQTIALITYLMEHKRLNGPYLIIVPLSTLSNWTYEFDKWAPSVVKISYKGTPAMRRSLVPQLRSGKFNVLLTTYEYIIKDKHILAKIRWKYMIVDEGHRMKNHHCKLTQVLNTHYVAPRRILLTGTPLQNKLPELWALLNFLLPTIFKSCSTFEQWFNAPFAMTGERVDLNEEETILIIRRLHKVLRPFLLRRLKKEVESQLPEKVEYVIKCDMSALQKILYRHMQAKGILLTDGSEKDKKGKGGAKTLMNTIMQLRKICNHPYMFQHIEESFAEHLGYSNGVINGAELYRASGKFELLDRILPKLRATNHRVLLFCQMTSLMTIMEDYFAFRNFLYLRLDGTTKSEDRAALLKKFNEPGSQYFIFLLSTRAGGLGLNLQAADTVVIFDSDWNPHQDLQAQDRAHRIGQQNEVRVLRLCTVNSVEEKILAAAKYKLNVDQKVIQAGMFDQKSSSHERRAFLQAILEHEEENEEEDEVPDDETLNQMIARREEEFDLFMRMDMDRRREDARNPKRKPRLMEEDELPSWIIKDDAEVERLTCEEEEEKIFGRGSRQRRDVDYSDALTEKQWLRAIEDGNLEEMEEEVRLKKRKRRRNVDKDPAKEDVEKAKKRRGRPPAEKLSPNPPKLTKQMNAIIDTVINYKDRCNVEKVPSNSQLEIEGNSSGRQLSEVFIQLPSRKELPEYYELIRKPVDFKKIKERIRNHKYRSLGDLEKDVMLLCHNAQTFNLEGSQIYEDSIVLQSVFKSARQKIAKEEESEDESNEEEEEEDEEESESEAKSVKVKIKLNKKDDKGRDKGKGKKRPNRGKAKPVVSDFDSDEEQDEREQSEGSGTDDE

| SMARCA2 DMax % (SMARCA2) | DC50 (SMARCA2) [nM] | DC50 (SMARCA4) [nM] | SMARCA4 DMax % (SMARCA4) | Dmax (SMARCA2) [%] | Dmax (SMARCA4) [%] | Structure (SMILES) |
| --- | --- | --- | --- | --- | --- | --- |
| A (A=Dmax>75%) | < 100 | < 100 | A (A=Dmax>75%) | – | – | C[C@@H]1CN(CC2CCN(c3ccc4c(c3)C(=O)N(C3CCC(=O)NC3=O)C4)CC2)C[C@H](C)N1C(=O)N1CCN2c3cc(-c4cccc(F)c4O)nnc3NCC2(C)C1 (single isomer, unassigned) [Example 12] |
| – | < 100 | < 100 | – | > 75 | < 50 | C[C@@H]1CN(CC2CCN(c3ccc4c(c3)C(=O)N(C3CCC(=O)NC3=O)C4)CC2)C[C@@H](C)N1C(=O)N1CCN2c3cc(-c4cccc(F)c4O)nnc3NCC2(C)C1 (single isomer, unassigned) [Example 13] |
| – | < 100 | < 100 | – | > 75 | 50 to 75 | C[C@@H]1CN(CC2CCN(c3ccc4c(c3)C(=O)N(C3CCC(=O)NC3=O)C4)CC2)C[C@@H](C)N1C(=O)N1CCN2c3cc(-c4cccc(Cl)c4O)nnc3NCC2(C)C1 (single isomer, unassigned) [Example 14] |
| – | < 100 | < 100 | – | > 75 | < 50 | C[C@@H]1CN(CC2CCN(c3ccc4c(c3)C(=O)N(C3CCC(=O)NC3=O)C4)CC2)C[C@@H](C)N1C(=O)N1CCN2c3cc(-c4cc(F)cc(F)c4O)nnc3NCC2(C)C1 (single isomer, unassigned) [Example 28] |
| – | < 100 | < 100 | – | > 75 | > 75 | C[C@@H]1CN(CC2CCN(c3ccc4c(c3)C(=O)N(C3CCC(=O)NC3=O)C4)CC2)C[C@H](C)N1C(=O)N1CCN2c3cc(-c4cc(F)cc(F)c4O)nnc3NCC2(C)C1 (single isomer, unassigned) [Example 34] |
| – | < 100 | < 100 | – | > 75 | – | O=C1CCC(N2Cc3ccc(N4CC[C@H](CN5C[C@@H]6[C@H](C5)[C@H]6CN5CCN6c7cc(-c8cc(F)cc(F)c8O)nnc7NC[C@H]6C5)[C@@H](F)C4)cc3C2=O)C(=O)N1 (single isomer, unassigned) [Example 37] |
| – | < 100 | < 100 | – | > 75 | < 50 | C[C@H]1CN2c3cc(-c4cc(F)cc(F)c4O)nnc3NC[C@H]2CN1C[C@H]1[C@@H]2CN(C[C@H]3CCN(c4ccc5c(c4)C(=O)N(C4CCC(=O)NC4=O)C5)C[C@@H]3F)C[C@@H]21 (single isomer, unassigned) [Example 39] |
| B (B=50%<Dmax≤75%) | < 100 | < 100 | – | – | 50 to 75 | O=C1CCC(N2Cc3ccc(N4CCC(CN5C[C@@H]6[C@H](C5)[C@H]6CN5CCN6c7cc(-c8cc(F)cc(F)c8O)nnc7NC[C@H]6C5)C(F)(F)C4)cc3C2=O)C(=O)N1 (single isomer, unassigned) [Example 40] |
| A (A=Dmax>75%) | < 100 | < 100 | B (B=50%<Dmax≤75%) | – | – | O=C1CCC(N2Cc3ccc(N4CCC(CN5C[C@@H]6[C@H](C5)[C@H]6CN5CCN6c7cc(-c8cc(F)cc(F)c8O)nnc7NC[C@H]6C5)C(F)(F)C4)cc3C2=O)C(=O)N1 (single isomer, unassigned) [Example 41] |
| – | < 100 | < 100 | – | > 75 | < 50 | C[C@@H]1CN(C[C@H]2CCN(c3ccc4c(c3)C(=O)N(C3CCC(=O)NC3=O)C4)C[C@@H]2F)C[C@H](C)N1C(=O)N1CCN2c3cc(-c4cccc(F)c4O)nnc3NC[C@H]2C1 (single isomer, unassigned) [Example 44] |
| – | < 100 | < 100 | – | > 75 | > 75 | CCC12CNc3nnc(-c4cc(F)cc(F)c4O)cc3N1CCN(C(=O)N1[C@H](C)CN(CC3CCN(c4ccc5c(c4)C(=O)N(C4CCC(=O)NC4=O)C5)CC3)C[C@@H]1C)C2 (single isomer, unassigned) [Example 59] |
| – | < 100 | < 100 | – | > 75 | > 75 | CCC12CNc3nnc(-c4cccc(F)c4O)cc3N1CCN(C(=O)N1[C@H](C)CN(CC3CCN(c4ccc5c(c4)C(=O)N(C4CCC(=O)NC4=O)C5)CC3)C[C@@H]1C)C2 (single isomer, unassigned) [Example 60] |
| – | < 100 | < 100 | – | – | – | CCC12CNc3nnc(-c4cc(F)cc(F)c4O)cc3N1CCN(C(=O)N1[C@H](C)CN(CC3CCN(c4ccc5c(c4)C(=O)N(C4CCC(=O)NC4=O)C5)CC3)C[C@@H]1C)C2 (single isomer, unassigned) [Example 61] |
| A (A=Dmax>75%) | < 100 | < 100 | A (A=Dmax>75%) | – | – | CCC12CNc3nnc(-c4cccc(F)c4O)cc3N1CCN(C(=O)N1[C@H](C)CN(CC3CCN(c4ccc5c(c4)C(=O)N(C4CCC(=O)NC4=O)C5)CC3)C[C@@H]1C)C2 (single isomer, unassigned) [Example 62] |
| – | < 100 | < 100 | – | – | – | C[C@@H]1CN(CC2CCN(c3ccc4c(c3)C(=O)N(C3CCC(=O)NC3=O)C4)CC2)C[C@@H](C)N1C(=O)N1CCN2c3cc(-c4cccc(Cl)c4O)nnc3NCC2(C)C1 (single isomer, unassigned) [Example 63] |
| – | < 100 | < 100 | – | – | – | C[C@@H]1CN(CC2CCN(c3ccc4c(c3)C(=O)N(C3CCC(=O)NC3=O)C4)CC2)C[C@H](C)N1C(=O)N1CCN2c3cc(-c4cc(F)cc(F)c4O)nnc3NCC2(C)C1 (single isomer, unassigned) [Example 64] |
| – | < 100 | < 100 | – | > 75 | 50 to 75 | CCC12CNc3nnc(-c4cccc(F)c4O)cc3N1CCN(C(=O)N1CCN(CC3CCN(c4ccc5c(c4)C(=O)N([C@H]4CCC(=O)NC4=O)C5)CC3)CC1(C)C)C2 (single isomer, unassigned) [Example 74] |
| – | < 100 | < 100 | – | > 75 | 50 to 75 | CCC12CNc3nnc(-c4cccc(Cl)c4O)cc3N1CCN(C(=O)N1[C@H](C)CN(CC3CCN(c4ccc5c(c4)C(=O)N([C@H]4CCC(=O)NC4=O)C5)CC3)C[C@H]1C)C2 (single isomer, unassigned) [Example 75] |
| – | < 100 | < 100 | – | > 75 | 50 to 75 | CCC12CNc3nnc(-c4cccc(Cl)c4O)cc3N1CCN(C(=O)N1CCN(CC3CCN(c4ccc5c(c4)C(=O)N([C@H]4CCC(=O)NC4=O)C5)CC3)CC1(C)C)C2 (single isomer, unassigned) [Example 76] |
| – | < 100 | < 100 | – | > 75 | 50 to 75 | CCC12CNc3nnc(-c4cccc(Cl)c4O)cc3N1CCN(C(=O)N1C[C@H](C)N(CC3CCN(c4ccc5c(c4)C(=O)N([C@H]4CCC(=O)NC4=O)C5)CC3)C[C@H]1C)C2 (single isomer, unassigned) [Example 77] |
| – | < 100 | < 100 | – | > 75 | 50 to 75 | CCC12CNc3nnc(-c4cccc(F)c4O)cc3N1CCN(C(=O)N1C[C@H](C)N(CC3CCN(c4ccc5c(c4)C(=O)N([C@H]4CCC(=O)NC4=O)C5)CC3)C[C@H]1C)C2 (single isomer, unassigned) [Example 78] |
| – | < 100 | > 1000 | – | > 75 | < 50 | CCC12CNc3nnc(-c4cccc(F)c4O)cc3N1CCN(C(=O)N1CCN(CC3CCN(c4ccc5c(c4)C(=O)N(C4CCC(=O)NC4=O)C5)CC3)CC1(C)C)C2 (single isomer, unassigned) [Example 79, 3-(6-(4-((4-(6a-ethyl-2-(3-fluoro-2-hydroxyphenyl)-6,6a,7,8,9,10-hexahydro-5H-pyrazino-[1′,2′:4,5]pyrazino[2,3-c]pyridazine-8-carbonyl)-3,3-dimethylpiperazin-1-yl)methyl)-piperidin-1-yl)-1-oxoisoindolin-2-yl)piperidine-2,6-dione] |
